The values below come from ChEMBL document CHEMBL1150254, “Dihydroxystyrene metabolites from an association of the sponges Poecillastra wondoensis and Jaspis sp” (J Nat Prod, 2008).

Structures are written as SMILES. pIC50: −log10 of the molar value. Activity calls are given as the source filed them. The calls are words filed in the database; no cut-off is given here.

The pIC50 is the negative decadic logarithm of the IC50, by convention in mol/L. By IC50 is commonly meant the concentration at which inhibition is half-maximal. A higher IC50 goes with lower potency.

In one experiment the target is Isocitrate lyase (Candida albicans, UniProt Q9P8Q7). Briefly: Inhibition of Candida albicans isocitrate lyase.
Sequence of Isocitrate lyase (Q9P8Q7 whole entry): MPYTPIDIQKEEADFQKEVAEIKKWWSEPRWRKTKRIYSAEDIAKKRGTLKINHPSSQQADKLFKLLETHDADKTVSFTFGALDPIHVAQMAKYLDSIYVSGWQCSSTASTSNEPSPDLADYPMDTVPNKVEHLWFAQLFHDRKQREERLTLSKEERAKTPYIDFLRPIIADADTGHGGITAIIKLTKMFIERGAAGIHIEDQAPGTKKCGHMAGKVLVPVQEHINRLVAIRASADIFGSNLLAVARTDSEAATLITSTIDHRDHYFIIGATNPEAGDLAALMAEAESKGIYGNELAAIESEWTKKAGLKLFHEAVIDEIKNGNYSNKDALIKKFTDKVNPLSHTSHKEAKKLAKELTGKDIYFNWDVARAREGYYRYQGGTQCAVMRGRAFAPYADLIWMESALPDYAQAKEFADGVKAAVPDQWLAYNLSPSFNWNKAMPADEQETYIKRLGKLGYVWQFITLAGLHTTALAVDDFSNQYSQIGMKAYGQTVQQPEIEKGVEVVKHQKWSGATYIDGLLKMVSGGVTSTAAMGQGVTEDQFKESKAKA
In turn, `CN(C)C(=N)N.CN(C)C(=N)N.O=S(=O)(O)O/C=C/c1ccc(OC2Oc3ccc(/C=C/OS(=O)(=O)O)cc3OC2c2ccc(O)c(O)c2)c(O)c1` (centres undefined) [listing 1 of 2 here] had a pIC50 of less than 3.59.
Still for that read-out and setting: then `C=C(CC(=O)O)C(=O)O` [ITACONATE], with 4.35.
As for `CN(C)C(=N)N.O=S(=O)(O)O/C=C/c1ccc2c(c1)OC(C(O)c1ccc(O)c(O)c1)O2` (centres undefined) [listing 1 of 2 here], the pIC50 was less than 3.37.
On the same count and under the same terms, then `O=S(=O)([O-])O/C=C/c1ccc2c(c1)OC(c1ccc(O)c(O)c1)C(OS(=O)(=O)[O-])O2.[Na+].[Na+]` (centres undefined), with 3.47; and `O=S(=O)([O-])O/C=C/c1ccc(OC2Oc3cc(/C=C/OS(=O)(=O)[O-])ccc3OC2c2ccc(O)c(O)c2)c(O)c1.[Na+].[Na+]` (centres undefined), with 4.19.
Same read-out and setting: then `COC(OC)C(OC)c1ccc(O)c(O)c1` (centres undefined), with 3.90; and `O=S(=O)([O-])O/C=C/c1ccc(O)c(O)c1.[Na+]` [JASPISIN], with less than 3.10; and `O=S(=O)([O-])O/C=C/c1ccc(OC2Oc3ccc(/C=C/OS(=O)(=O)[O-])cc3OC2c2ccc(O)c(O)c2)c(O)c1.[Na+].[Na+]` (centres undefined), with 3.57.
`CN(C)CCc1cn(C(c2ccc(O)c(O)c2)C2Oc3ccc(/C=C/OS(=O)(=O)[O-])cc3O2)cn1.Cl.[Na+]` (mixture of isomers) gave a pIC50 of less than 3.45.
For the compound `CN(C)CCc1cn(C(c2ccc(O)c(O)c2)C2Oc3ccc(/C=C\OS(=O)(=O)[O-])cc3O2)cn1.Cl.[Na+]` (centres undefined), the pIC50 is 3.79.
The same measure, in the same setting: then `CN(C)CCc1cn(C(c2ccc(O)c(O)c2)C2Oc3ccc(/C=C\OS(=O)(=O)[O-])cc3O2)cn1.[Na+]` (centres undefined), with 4.04; and `CN(C)CCc1cn(C(c2ccc(O)c(O)c2)C2Oc3ccc(/C=C/OS(=O)(=O)[O-])cc3O2)cn1.[Na+]` (centres undefined), with less than 3.42.
The same measure, in the same setting: then `O=S(=O)([O-])O/C=C\c1ccc(O)c(O)c1.[Na+]` [ISOJASPISIN], with less than 3.10; and `O=S(=O)([O-])O/C=C/c1ccc2c(c1)OC(C(O)c1ccc(O)c(O)c1)O2.[Na+]` (centres undefined), with 3.51.

Tested on in the next experiment: not listed separately
Briefly: Inhibition of Staphylococcus aureus sortase A.
In turn, `CN(C)C(=N)N.CN(C)C(=N)N.O=S(=O)(O)O/C=C/c1ccc(OC2Oc3ccc(/C=C/OS(=O)(=O)O)cc3OC2c2ccc(O)c(O)c2)c(O)c1` (centres undefined) [listing 1 of 2 here] gave a half-inhibitory concentration (IC50) greater than 200 µg/mL.
In turn, `CN(C)C(=N)N.O=S(=O)(O)O/C=C/c1ccc2c(c1)OC(C(O)c1ccc(O)c(O)c1)O2` (centres undefined) [listing 1 of 2 here] came in with an IC50 of 82.4 µg/mL.
Same read-out and setting: then `O=S(=O)([O-])O/C=C/c1ccc2c(c1)OC(c1ccc(O)c(O)c1)C(OS(=O)(=O)[O-])O2.[Na+].[Na+]` (centres undefined), with greater than 200 µg/mL; and `O=S(=O)([O-])O/C=C/c1ccc(OC2Oc3cc(/C=C/OS(=O)(=O)[O-])ccc3OC2c2ccc(O)c(O)c2)c(O)c1.[Na+].[Na+]` (centres undefined), with greater than 200 µg/mL; and `COC(OC)C(OC)c1ccc(O)c(O)c1` (centres undefined), with greater than 200 µg/mL.
`O=S(=O)([O-])O/C=C/c1ccc(O)c(O)c1.[Na+]` [JASPISIN] returned an IC50 of 14.6 µg/mL.
The same measure, in the same setting: then `O=S(=O)([O-])O/C=C/c1ccc(OC2Oc3ccc(/C=C/OS(=O)(=O)[O-])cc3OC2c2ccc(O)c(O)c2)c(O)c1.[Na+].[Na+]` (centres undefined), with 163.5 µg/mL; and `CN(C)CCc1cn(C(c2ccc(O)c(O)c2)C2Oc3ccc(/C=C/OS(=O)(=O)[O-])cc3O2)cn1.Cl.[Na+]` (mixture of isomers), with greater than 200 µg/mL; and `CN(C)CCc1cn(C(c2ccc(O)c(O)c2)C2Oc3ccc(/C=C\OS(=O)(=O)[O-])cc3O2)cn1.Cl.[Na+]` (centres undefined), with 68.3 µg/mL.
As to `CN(C)CCc1cn(C(c2ccc(O)c(O)c2)C2Oc3ccc(/C=C\OS(=O)(=O)[O-])cc3O2)cn1.[Na+]` (centres undefined), the IC50 is greater than 200 µg/mL.
The same measure, in the same setting: then `CN(C)CCc1cn(C(c2ccc(O)c(O)c2)C2Oc3ccc(/C=C/OS(=O)(=O)[O-])cc3O2)cn1.[Na+]` (centres undefined), with greater than 200 µg/mL.
On the same count and under the same terms, then `O=S(=O)([O-])O/C=C\c1ccc(O)c(O)c1.[Na+]` [ISOJASPISIN], with 34.2 µg/mL; and `O=S(=O)([O-])O/C=C/c1ccc2c(c1)OC(C(O)c1ccc(O)c(O)c1)O2.[Na+]` (centres undefined), with greater than 200 µg/mL.

Another experiment deals with K562. Briefly: Antitumor activity against human K562 cells. It is filed as functional, cell-based.
For the compound `O=S(=O)(O)O/C=C/c1ccc(OC2Oc3ccc(/C=C/OS(=O)(=O)O)cc3OC2c2ccc(O)c(O)c2)c(O)c1` (centres undefined), the outcome was inactive.
The same measure, in the same setting: then `O=S(=O)([O-])O/C=C/c1ccc(OC2Oc3cc(/C=C/OS(=O)(=O)[O-])ccc3OC2c2ccc(O)c(O)c2)c(O)c1.[Na+].[Na+]` (centres undefined), with “inactive”.
Take `CN(C)C(=N)N.O=S(=O)(O)O/C=C/c1ccc2c(c1)OC(C(O)c1ccc(O)c(O)c1)O2` (centres undefined) [listing 2 of 2 here]: the outcome was inactive.
On the same count and under the same terms, then `CN(C)CCc1cn(C(c2ccc(O)c(O)c2)C2Oc3ccc(/C=C\OS(=O)(=O)O)cc3O2)cn1` (centres undefined), with “inactive”.
The same measure, in the same setting: then `CN(C)C(=N)N.CN(C)C(=N)N.O=S(=O)(O)O/C=C/c1ccc(OC2Oc3ccc(/C=C/OS(=O)(=O)O)cc3OC2c2ccc(O)c(O)c2)c(O)c1` (centres undefined) [listing 2 of 2 here], with “inactive”; and `O=S(=O)(O)O/C=C/c1ccc2c(c1)OC(C(O)c1ccc(O)c(O)c1)O2` (centres undefined), with “inactive”.

Another experiment has as its system A549. Description: Antitumor activity against human A549 cells. Format: functional, cell-based.
For the compound `O=S(=O)(O)O/C=C/c1ccc(OC2Oc3ccc(/C=C/OS(=O)(=O)O)cc3OC2c2ccc(O)c(O)c2)c(O)c1` (centres undefined), the result was inactive.
`O=S(=O)([O-])O/C=C/c1ccc(OC2Oc3cc(/C=C/OS(=O)(=O)[O-])ccc3OC2c2ccc(O)c(O)c2)c(O)c1.[Na+].[Na+]` (centres undefined): the outcome was inactive.
On the same count and under the same terms, then `CN(C)C(=N)N.O=S(=O)(O)O/C=C/c1ccc2c(c1)OC(C(O)c1ccc(O)c(O)c1)O2` (centres undefined) [listing 2 of 2 here], with “inactive”; and `CN(C)CCc1cn(C(c2ccc(O)c(O)c2)C2Oc3ccc(/C=C\OS(=O)(=O)O)cc3O2)cn1` (centres undefined), with “inactive”.
As to `CN(C)C(=N)N.CN(C)C(=N)N.O=S(=O)(O)O/C=C/c1ccc(OC2Oc3ccc(/C=C/OS(=O)(=O)O)cc3OC2c2ccc(O)c(O)c2)c(O)c1` (centres undefined) [listing 2 of 2 here], the result was inactive.
Regarding `O=S(=O)(O)O/C=C/c1ccc2c(c1)OC(C(O)c1ccc(O)c(O)c1)O2` (centres undefined), the outcome was inactive.
